# Test results reported in ChEMBL document CHEMBL3885881, “DrugMatrix”.
# Organism: Rattus norvegicus
# Assay: DrugMatrix - Regimen: Daily Repeat
# Assay type: toxicity, organism-based, Sprague-Dawley
# Set-up: regimen Daily Repeat, gender Male, age 6-8 weeks
# Conditions: in vivo, po, route oral GAVAGE, vehicle .5 % CMC; for BASOPHIL / EOSINOPHIL / ERYTHROCYTE COUNT / HEMATOCRIT / HEMOGLOBIN / LEUKOCYTE COUNT / LYMPHOCYTE / MEAN CORPUSCULAR HEMOGLOBIN / MEAN CORPUSCULAR HEMOGLOBIN CONCENTRATION / MEAN CORPUSCULAR VOLUME / MONOCYTE / NEUTROPHIL / PLATELET COUNT: tissue Blood; for ALANINE AMINOTRANSFERASE / ALBUMIN / ALKALINE PHOSPHATASE / ASPARTATE AMINOTRANSFERASE / BLOOD UREA NITROGEN / CHLORIDE / CHOLESTEROL / CREATINE PHOSPHOKINASE / CREATININE / GLUCOSE / PHOSPHORUS / POTASSIUM / SODIUM / TOTAL PROTEIN: tissue Plasma
# [1] = 0 mg/kg, 72 h, dose level Control, time 3 day
# [2] = 0 mg/kg, 120 h, dose level Control, time 5 day
# [3] = 1 mg/kg, 72 h, dose level Low, time 3 day
# [4] = 1 mg/kg, 120 h, dose level Low, time 5 day
# [5] = 14 mg/kg, 72 h, dose level High, time 3 day
# [6] = 14 mg/kg, 120 h, dose level High, time 5 day
smiles,measurement,setting,value
CN1C(C(=O)Nc2ccccn2)=C(O)c2ccccc2S1(=O)=O [PIROXICAM],BASOPHIL,[1],0%
same,EOSINOPHIL,[1],0.33%
same,ERYTHROCYTE COUNT,[1],6.03 x10E6/uL
same,HEMATOCRIT,[1],38.8%
same,HEMOGLOBIN,[1],14.26 G/DL
same,LEUKOCYTE COUNT,[1],10.64 x10E3/uL
same,LYMPHOCYTE,[1],83.33%
same,MEAN CORPUSCULAR HEMOGLOBIN,[1],23.64 pg
same,MEAN CORPUSCULAR HEMOGLOBIN CONCENTRATION,[1],36.74 G/DL
same,MEAN CORPUSCULAR VOLUME,[1],64.32 fL
same,MONOCYTE,[1],3.33%
same,NEUTROPHIL,[1],13%
same,PLATELET COUNT,[1],1264.4 x10E3/uL
same,ALANINE AMINOTRANSFERASE,[1],38.83 u/L
same,ALBUMIN,[1],3.55 G/DL
same,ALKALINE PHOSPHATASE,[1],368.33 u/L
same,ASPARTATE AMINOTRANSFERASE,[1],66.17 u/L
same,BLOOD UREA NITROGEN,[1],15.67 mg/dL
same,CHLORIDE,[1],104.33 MEQ/L
same,CHOLESTEROL,[1],76.5 mg/dL
same,CREATINE PHOSPHOKINASE,[1],166.83 u/L
same,CREATININE,[1],0.52 mg/dL
same,GLUCOSE,[1],173.17 mg/dL
same,PHOSPHORUS,[1],11.68 mg/dL
same,POTASSIUM,[1],6.43 MEQ/L
same,SODIUM,[1],149.5 MEQ/L
same,TOTAL PROTEIN,[1],5.93 G/DL
same,BASOPHIL,[2],0%
same,EOSINOPHIL,[2],0%
same,ERYTHROCYTE COUNT,[2],5.88 x10E6/uL
same,HEMATOCRIT,[2],37.87%
same,HEMOGLOBIN,[2],14.48 G/DL
same,LEUKOCYTE COUNT,[2],12.43 x10E3/uL
same,LYMPHOCYTE,[2],84.17%
same,MEAN CORPUSCULAR HEMOGLOBIN,[2],24.65 pg
same,MEAN CORPUSCULAR HEMOGLOBIN CONCENTRATION,[2],38.25 G/DL
same,MEAN CORPUSCULAR VOLUME,[2],64.47 fL
same,MONOCYTE,[2],4.33%
same,NEUTROPHIL,[2],11.5%
same,PLATELET COUNT,[2],1182.33 x10E3/uL
same,ALANINE AMINOTRANSFERASE,[2],38.67 u/L
same,ALBUMIN,[2],3.55 G/DL
same,ALKALINE PHOSPHATASE,[2],342.5 u/L
same,ASPARTATE AMINOTRANSFERASE,[2],63.33 u/L
same,BLOOD UREA NITROGEN,[2],15.5 mg/dL
same,CHLORIDE,[2],104 MEQ/L
same,CHOLESTEROL,[2],75.5 mg/dL
same,CREATINE PHOSPHOKINASE,[2],142.5 u/L
same,CREATININE,[2],0.62 mg/dL
same,GLUCOSE,[2],165.17 mg/dL
same,PHOSPHORUS,[2],10.87 mg/dL
same,POTASSIUM,[2],6.85 MEQ/L
same,SODIUM,[2],150.17 MEQ/L
same,TOTAL PROTEIN,[2],5.93 G/DL
same,BASOPHIL,[3],0%
same,EOSINOPHIL,[3],0%
same,ERYTHROCYTE COUNT,[3],6.55 x10E6/uL
same,HEMATOCRIT,[3],42.8%
same,HEMOGLOBIN,[3],15.95 G/DL
same,LEUKOCYTE COUNT,[3],11.1 x10E3/uL
same,LYMPHOCYTE,[3],85.5%
same,MEAN CORPUSCULAR HEMOGLOBIN,[3],24.3 pg
same,MEAN CORPUSCULAR HEMOGLOBIN CONCENTRATION,[3],37.3 G/DL
same,MEAN CORPUSCULAR VOLUME,[3],65.25 fL
same,MONOCYTE,[3],3.5%
same,NEUTROPHIL,[3],11%
same,PLATELET COUNT,[3],1530 x10E3/uL
same,ALANINE AMINOTRANSFERASE,[3],31.5 u/L
same,ALBUMIN,[3],3.75 G/DL
same,ALKALINE PHOSPHATASE,[3],379 u/L
same,ASPARTATE AMINOTRANSFERASE,[3],59 u/L
same,BLOOD UREA NITROGEN,[3],16.5 mg/dL
same,CHLORIDE,[3],102.5 MEQ/L
same,CHOLESTEROL,[3],77.5 mg/dL
same,CREATINE PHOSPHOKINASE,[3],142.5 u/L
same,CREATININE,[3],0.4 mg/dL
same,GLUCOSE,[3],174 mg/dL
same,PHOSPHORUS,[3],13.7 mg/dL
same,POTASSIUM,[3],6.85 MEQ/L
same,SODIUM,[3],152 MEQ/L
same,TOTAL PROTEIN,[3],6.2 G/DL
same,BASOPHIL,[4],0%
same,EOSINOPHIL,[4],0.33%
same,ERYTHROCYTE COUNT,[4],6.32 x10E6/uL
same,HEMATOCRIT,[4],40.2%
same,HEMOGLOBIN,[4],15.2 G/DL
same,LEUKOCYTE COUNT,[4],12.73 x10E3/uL
same,LYMPHOCYTE,[4],86.33%
same,MEAN CORPUSCULAR HEMOGLOBIN,[4],24.07 pg
same,MEAN CORPUSCULAR HEMOGLOBIN CONCENTRATION,[4],37.83 G/DL
same,MEAN CORPUSCULAR VOLUME,[4],63.7 fL
same,MONOCYTE,[4],2.33%
same,NEUTROPHIL,[4],11%
same,PLATELET COUNT,[4],1319.67 x10E3/uL
same,ALANINE AMINOTRANSFERASE,[4],36.67 u/L
same,ALBUMIN,[4],3.43 G/DL
same,ALKALINE PHOSPHATASE,[4],437.33 u/L
same,ASPARTATE AMINOTRANSFERASE,[4],64 u/L
same,BLOOD UREA NITROGEN,[4],13.67 mg/dL
same,CHLORIDE,[4],103 MEQ/L
same,CHOLESTEROL,[4],65 mg/dL
same,CREATINE PHOSPHOKINASE,[4],156.67 u/L
same,CREATININE,[4],0.53 mg/dL
same,GLUCOSE,[4],162.67 mg/dL
same,PHOSPHORUS,[4],11.97 mg/dL
same,POTASSIUM,[4],7.07 MEQ/L
same,SODIUM,[4],148.33 MEQ/L
same,TOTAL PROTEIN,[4],5.63 G/DL
same,BASOPHIL,[5],0%
same,EOSINOPHIL,[5],0.67%
same,ERYTHROCYTE COUNT,[5],6.72 x10E6/uL
same,HEMATOCRIT,[5],42.6%
same,HEMOGLOBIN,[5],15.63 G/DL
same,LEUKOCYTE COUNT,[5],11.5 x10E3/uL
same,LYMPHOCYTE,[5],77.67%
same,MEAN CORPUSCULAR HEMOGLOBIN,[5],23.3 pg
same,MEAN CORPUSCULAR HEMOGLOBIN CONCENTRATION,[5],36.73 G/DL
same,MEAN CORPUSCULAR VOLUME,[5],63.4 fL
same,MONOCYTE,[5],1.67%
same,NEUTROPHIL,[5],20%
same,PLATELET COUNT,[5],1318.33 x10E3/uL
same,ALANINE AMINOTRANSFERASE,[5],31.33 u/L
same,ALBUMIN,[5],3.67 G/DL
same,ALKALINE PHOSPHATASE,[5],301.33 u/L
same,ASPARTATE AMINOTRANSFERASE,[5],56.33 u/L
same,BLOOD UREA NITROGEN,[5],18.33 mg/dL
same,CHLORIDE,[5],104.67 MEQ/L
same,CHOLESTEROL,[5],84.67 mg/dL
same,CREATINE PHOSPHOKINASE,[5],181.33 u/L
same,CREATININE,[5],0.47 mg/dL
same,GLUCOSE,[5],193.67 mg/dL
same,PHOSPHORUS,[5],14.03 mg/dL
same,POTASSIUM,[5],6.9 MEQ/L
same,SODIUM,[5],150.67 MEQ/L
same,TOTAL PROTEIN,[5],6.03 G/DL
same,BASOPHIL,[6],0%
same,EOSINOPHIL,[6],0%
same,ERYTHROCYTE COUNT,[6],6.6 x10E6/uL
same,HEMATOCRIT,[6],41.4%
same,HEMOGLOBIN,[6],15.03 G/DL
same,LEUKOCYTE COUNT,[6],16.7 x10E3/uL
same,LYMPHOCYTE,[6],84.33%
same,MEAN CORPUSCULAR HEMOGLOBIN,[6],22.83 pg
same,MEAN CORPUSCULAR HEMOGLOBIN CONCENTRATION,[6],36.4 G/DL
same,MEAN CORPUSCULAR VOLUME,[6],62.8 fL
same,MONOCYTE,[6],0.67%
same,NEUTROPHIL,[6],15%
same,PLATELET COUNT,[6],1151 x10E3/uL
same,ALANINE AMINOTRANSFERASE,[6],37.33 u/L
same,ALBUMIN,[6],3.4 G/DL
same,ALKALINE PHOSPHATASE,[6],386 u/L
same,ASPARTATE AMINOTRANSFERASE,[6],55.33 u/L
same,BLOOD UREA NITROGEN,[6],15.33 mg/dL
same,CHLORIDE,[6],101.67 MEQ/L
same,CHOLESTEROL,[6],67 mg/dL
same,CREATINE PHOSPHOKINASE,[6],159.67 u/L
same,CREATININE,[6],0.5 mg/dL
same,GLUCOSE,[6],174.67 mg/dL
same,PHOSPHORUS,[6],14.17 mg/dL
same,POTASSIUM,[6],7.1 MEQ/L
same,SODIUM,[6],149 MEQ/L
same,TOTAL PROTEIN,[6],5.7 G/DL
